“Also recorded” adds a separate entry of the source. Read-outs that look alike come from different tables or passages of the source.
Experiments:
[1] = Subcutaneous Metrazol Seizure Threshold Test (sc Met) in rats; format: in vivo, rats (male albino, Sprague Dawley)
Method: (§1) The drugs were administered either orally or intraperitoneally in a volume of 0.01 ml/g body weight in mice and 0.04 ml/10 g in rats. All tests were conducted at the previously determined time of peak drug effect.
(§2) The profile of anticonvulsant activity for each substance was established by five tests: one electrical and four chemical. The electrical test employed was the maximal electroshock seizure pattern test. […] Except for the sc Strych Test, these tests measure the ability of anticonvulsants to afford complete protection against threshold seizures induced by the subcutaneous injection of the CD97 of the convulsant agent.
(§3) All convulsants were administered subcutaneously into a loose fold of skin on the back of the neck in a volume of 0.01 ml/g body weight in mice; Metrazol was injected in a volume of 0.02 ml/10 g body weight in rats. The convulsant drugs were administered at the previously determined time of peak anticonvulsant action of the drug under study. […] Except for strychnine, absence of a five-second episode of clonic spasms (threshold seizure) was taken as protection. In the case of strychnine, complete abolition of the hindleg tonic extension was taken as protection.

[2] = format: in vivo; conditions: Phase V, mice, i.p.
Method: as §2, §3

[3] = mouse, in vivo
Method: (§4) All animals were allowed free access to both food (S/L Custom Lab Diet-7) and water, except when they were removed from their cages for the experimental procedure.
as §1, §2, §3

[4] = in vivo; parameters: species or system mice; conditions: mouse, in vivo, ip
Method: (§5) The profile of toxicity for each test drug was established by the following procedures: firstly, the minimal neurotoxic dose (TD50) was determined by the rotorod procedure at the time of peak neurotoxic effect. When a normal mouse is placed on a knurled rod one inch in diameter rotating at a speed of six rpm it can maintain its equilibrium for long periods of time. Neurological deficit is indicated by inability of the mouse to maintain its equilibrium for one minute in each of three trials on this rotating rod. Neurological deficit in rats is indicated by ataxia, loss of placing response and muscle tone. […] These observations also provide preliminary information essential for the subsequent determination of the HD50 and LD50. The HD50 represents the median dose at which 50% of animals lose their righting reflex.

[5] = parameters: species or system mice; conditions: mouse, in vivo, ip, 1132 mg/kg
Method: Consequently, it was necessary to administer the high doses required for the righting reflex and 24-hour lethality tests in mice in double the volume. In view of this fact, additional studies were done to determine the effect of this double volume on the time of peak effect of the test substance. […] […]. Moreover, 1, 3, and 4 of the 8 mice were dead at 20, 40, and 46 hours, respectively. […] Accordingly, additional pharmacokinetic and pharmacodynamic studies will be done in order to reveal mechanisms that may contribute to the long TPE for neurotoxicity and the abnormally low ratio between the minimal-toxic dose and the 24-hour lethal dose.

[6] = Oral absorption in mice (oral/i.p. ratios); format: in vivo
Description: The extent of oral absorption can be determined from the ratio of the oral ED50/i.p. […] In mice the oral TD50/i.p. TD50 and oral ED50/i.p.

[7] = Time of peak effect (TPE) over several tests in mice
Method: as §1

[8] = Phase I anticonvulsant screening (MES and scMet tests); conditions: in words
[9] = Subcutaneous Metrazol Seizure Threshold Test (sc Met) in mice; conditions: for ED50: Mus musculus
Method: as §4, §1, §2, §3

[10] = not given; remark: listed apart in the source
[11] = Time of peak effect (TPE) over several tests in rats; conditions: p.o., Compound 9: toxicity, MES and sc Met tests
Method: as §1

[12] = not given; remark: listed apart in the source
[13] = Maximal electroshock seizure (MES) pattern test in rats; format: in vivo, rats (male albino, Sprague Dawley)
Method: as §4, §1, §2

[14] = Phase III Toxicity Profile in mice i.p. (overt signs of toxicity); format: in vivo
Description: […]. […] […]. […] […].

[15] = not given; remark: listed apart in the source
[16] = in vivo; conditions: mouse, in vivo; for selectivity ratio: mice, i.p.
Method: as §5

[17] = mouse, in vivo; remark: listed apart in the source
Method: as §1, §5

[18] = in vivo; conditions: mouse
Method: as §1, §5

[19] = in vivo; conditions: rat, po
Method: as §1, §5

[20] = 300 mg/kg, four hours after administration
[21] = mice, i.p., from safety ratio TD3/ED97

Question: With Clc1ccc(N2N=NCC2c2ccncc2)cc1 (stereo not drawn) [Compound 9, 1-(p-Chlorophenyl)-5-(4-pyridyl)-Δ^2-1,2,3-triazoline] as the compound, how does the ED50 ([1]; Rattus norvegicus, po, rats, p.o., read-out: ED50 sc Met) read?
Answer: 278 mg/kg

Question: And the “anticonvulsant potency by sc Met, rats compared with mice” value ([1]; oral administration)?
Answer: no significant difference in the anticonvulsant potency

Question: And the “97% protection in nontoxic doses, sc Met” value ([1]; rats, p.o.)?
Answer: do not provide 97% protection

Question: What about the “effectiveness by the sc Strych test” value [2] of the same compound?
Answer: not effective against sc Strych; also recorded: ineffective after i.p. administration in mice by the sc Strych test

Question: What about the “oral ED50/i.p. ED50, sc Met” value [3] of the same compound?
Answer: 3.50

Question: And the “P.I. by the scMet test” value ([3]; po)?
Answer: 4.62

Question: What about the “P.I. derived from the sc Met test” value ([3]; sc) of the same compound?
Answer: high

Question: And the “P.I. against sc Bic, times higher than that for phenobarbital” value (Phase V, mice, i.p.)?
Answer: fifty

Question: What about the “effectiveness by the sc Bic test” value (Phase V, mice, i.p.) of the same compound?
Answer: effective against sc Met, sc Bic, and sc Pic in nontoxic doses

Question: And the “P.I. derived from the sc Bic test” value (in words)?
Answer: high

Question: What about the “Slope, regression line, HD50 (righting reflex)” value [4] of the same compound?
Answer: 4.27

Question: And the TD50 [4]?
Answer: 2050 mg/kg

Question: What about the “Time of Test / time of peak toxicity, righting reflex” value [4] of the same compound?
Answer: 24 h

Question: And the “gross examination of the peritoneal cavity” value [5]?
Answer: an unevacuated stomach that was approximately three times normal size; an empty, flaccid small intestine; and a vermiform appendix markedly enlarged from flatus

Question: What about the “absorption after oral administration” value [6] of the same compound?
Answer: adequately absorbed in mice after oral administration

Question: What about the “TPE by the anticonvulsant tests” value ([7]; p.o.) of the same compound?
Answer: one-half

Question: And the “TPE after oral compared with intraperitoneal administration” value ([7]; p.o. vs i.p.)?
Answer: significantly different from that obtained after intraperitoneal administration

Question: And the anticonvulsant potency [8]?
Answer: most potent

Question: What about the anti-Metrazol activity [9, 20] of the same compound?
Answer: anti-Metrazol activity was present

Question: What about the ED50 ([9]; ip, read-out: ED50 sc Met) of the same compound?
Answer: 43.5 mg/kg

Question: And the ED50 ([9]; po, read-out: ED50 scMet)?
Answer: 153 mg/kg

Question: What about the “effectiveness by the sc Met test” value ([9]; Phase V, mice, i.p.) of the same compound?
Answer: effective against sc Met, sc Bic, and sc Pic in nontoxic doses

Question: And the “safety ratio TD3/ED97, sc Met” value ([9]; mice)?
Answer: 3.44

Question: What about the “Protective Index (P.I.) = TD50/ED50, sc Met” value ([9]; mice, i.p.) of the same compound?
Answer: 26.02

Question: What about the “Time of Test / time of peak effect (TPE), sc Met” value ([9]; mice, i.p.) of the same compound?
Answer: 1/2

Question: What about the “mice protected, sc Met, nontoxic doses” value [9, 21] of the same compound?
Answer: 97%

Question: What about the “24-hour LD50/ED50 safety ratio by the sc Met test” value ([9]; mice, in words) of the same compound?
Answer: high

Question: What about the “profile of anticonvulsant activity, Metrazol” value ([9]; nontoxic doses) of the same compound?
Answer: elevate the Metrazol seizure threshold in nontoxic doses

Question: And the “neurotoxicity, rats compared with mice” value ([10]; rat, in vivo, po)?
Answer: significantly more neurotoxic in rats than it is in mice

Question: What about the “toxicity relative to phenobarbital” value ([10]; rats, p.o.) of the same compound?
Answer: one-fifth to one-sixth

Question: And the TPE [11]?
Answer: six

Question: What about the “activity by the MES test” value [12, 20] of the same compound?
Answer: ineffective by the MES test (although the tonic extension was slow)

Question: What about the “ED50 MES” value ([12]; mice, i.p.) of the same compound?
Answer: 257.42 mg/kg

Question: What about the “Protective Index (P.I.) = TD50/ED50, MES” value ([12]; mice, i.p.) of the same compound?
Answer: 4.40

Question: And the “Time of Test / time of peak effect (TPE), MES” value ([12]; mice, i.p.)?
Answer: 1/2

Question: What about the “mice protected, MES, nontoxic doses” value [12, 21] of the same compound?
Answer: 97%

Question: And the “ED50 MES” value ([12]; mice, p.o.)?
Answer: 290.72 mg/kg

Question: What about the “potency relative to phenobarbital, MES” value ([12]; mice, p.o.) of the same compound?
Answer: 1/15

Question: What about the “potency relative to phenytoin, MES” value ([12]; mice, p.o.) of the same compound?
Answer: 1/32

Question: And the “97% protection in nontoxic doses, oral” value ([12]; mice, p.o., MES)?
Answer: the same level of protection is obtained only in mice subjected to the MES test

Question: And the “oral ED50/i.p. ED50, MES” value ([12]; mouse, in vivo)?
Answer: 1.13

Question: What about the “safety ratio TD3/ED97, MES” value ([12]; mouse, in vivo) of the same compound?
Answer: 1.13

Question: And the “P.I. by the MES test” value ([12]; mouse, in vivo, po)?
Answer: 2.42

Question: And the “profile of anticonvulsant activity, electroshock” value ([12]; nontoxic doses)?
Answer: ability to modify maximal electroshock seizure pattern

Question: What about the ED50 ([13]; Rattus norvegicus, po, rats) of the same compound?
Answer: 266 mg/kg

Question: And the “anticonvulsant potency by MES, rats compared with mice” value ([13]; oral administration)?
Answer: no significant difference in the anticonvulsant potency

Question: And the “97% protection in nontoxic doses, MES” value ([13]; rats, p.o.)?
Answer: do not provide 97% protection

Question: What about the toxicity profile ([14]; mice, i.p., 1TD50, 2TD50's and 4TD50's) of the same compound?
Answer: decreased motor activity, ataxia, decreased respiration and cyanosis

Question: What about the “toxicity at the end of 24 hours” value ([14]; mice, i.p., 2TD50's) of the same compound?
Answer: One of two animals given 2TD50's was still ataxic and cyanotic at the end of 24 hours

Question: And the “dead 24 hours after drug administration” value ([14]; mice, i.p., 4TD50's)?
Answer: Both mice given 4TD50's of Compound 9 were dead 24 hours after drug administration

Question: And the rotorod toxicity ([14]; mouse, in vivo, ip)?
Answer: one of two animals given 4TD50's displayed rotorod toxicity

Question: And the “P.I. by the sc Pic test compared with phenobarbital, ethosuximide and valproate” value ([15]; Phase V, mice, i.p.)?
Answer: compares favorably with those for phenobarbital, ethosuximide, and valproate

Question: And the “effectiveness by the sc Pic test” value ([15]; Phase V, mice, i.p.)?
Answer: lesser effectiveness by the sc Pic test

Question: And the “selectivity (slope of regression line), sc Pic test” value ([15]; in words)?
Answer: lack of selectivity (flat regression lines)

Question: What about the “selectivity (slope of regression line), 24-hour lethality” value [16] of the same compound?
Answer: lack of selectivity (flat regression lines)

Question: What about the “margin between the minimal toxic dose and the 24-hour lethal dose” value ([16]; ip) of the same compound?
Answer: probably not satisfactory

Question: What about the selectivity ratio ([16]; ip, 24-hour LD50, rotorod TD50, read-out: Ratio LD50/TD50) of the same compound?
Answer: 1.88

Question: And the selectivity ratio ([16]; ip, 24-hour LD50, read-out: Ratio LD50/HD50)?
Answer: 1.04

Question: What about the LD50 at 24 h ([16]; ip, read-out: LD50 (lethality)) of the same compound?
Answer: 2130 mg/kg

Question: What about the “TPE (rotorod)” value ([17]; ip) of the same compound?
Answer: 12 and 20

Question: And the “TPE by the rotorod test” value ([17]; po)?
Answer: 24 h

Question: And the deaths ([17]; po, 600 mg/kg)?
Answer: 1 of 8

Question: And the “deaths (of 8)” value ([17]; po, 700 mg/kg)?
Answer: 6

Question: And the deaths ([17]; po, 800 mg/kg)?
Answer: 1 of 8

Question: And the deaths ([17]; po, 1000 mg/kg)?
Answer: 4 of 8

Question: What about the selectivity ratio [18] of the same compound?
Answer: 0.62

Question: What about the TD50 ([18]; ip) of the same compound?
Answer: 1130 mg/kg

Question: What about the TD50 ([18]; po) of the same compound?
Answer: 705 mg/kg

Question: And the TD50 [19]?
Answer: 394 mg/kg
